From patent US20120245137A1 (Zalicus Pharmaceuticals Ltd., priority 2009, published 2012)
Where two headings read alike, the source gives them in different places.

What was measured:
Format in all cases: cell-based
[1] = target: CAv1.2 (Homo sapiens, UniProt Q13936); test: FLIPR data, CAv1.2 channel blocking (Table 6); details: for CAv1.2 IC50 Ratio closed/inact.: ratio closed/inactivated IC50
[2] = target: T-type calcium channel (Homo sapiens, UniProt O95180); test: T-type channel blocking, FLIPR data (Table 6); details: for CAv3.2 IC50 Ratio closed/inact.: CAv3.2, ratio closed/inactivated IC50
Excerpt: (§1) Another method, high-throughput spectrophotometric assay, utilizes loading of the cell lines with a fluorescent dye sensitive to intracellular calcium concentration and subsequent examination of the effects of compounds on the ability of depolarization by potassium chloride or other means to alter intracellular calcium levels.

[3] = target: T-type calcium channel (Homo sapiens, UniProt O43497); test: T-type channel blocking, FLIPR data (Table 6); details: CAv3.1
Excerpt: as §1

[4] = target: Human Cav 2.2 channels (Homo sapiens, UniProt Q00975); test: Fluorescent assay for CaV2.2 channels using potassium depolarization (VIPR/FLIPR); details: FLIPR data; for CAv2.2 IC50 Ratio closed/inact.: ratio closed/inactivated IC50
How it was run: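 Fluo-4 calcium fluorescence (480/535 nm) was recorded on VIPR or FLIPR after depolarization to 70 mM final potassium. Before this, cells were preincubated 30 min at 25 °C with compound in 4–30 mM potassium, so that state-dependent block could be assessed; the cells were HEK293 coexpressing Cav2.2, α2δ, β and Kir2.3.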

[5] = closed state, read-out: CAv1.2 IC50 Closed
[6] = inactivated state, read-out: CAv1.2 IC50 Inact.
[7] = CAv3.2, closed state, read-out: CAv3.2 IC50 Closed
[8] = CAv3.2, inactivated state, read-out: CAv3.2 IC50 Inact.
[9] = closed state, read-out: CAv2.2 IC50 Closed
[10] = inactivated state, read-out: CAv2.2 IC50 Inact.

CAv1.2, sequence (Q13936 whole entry): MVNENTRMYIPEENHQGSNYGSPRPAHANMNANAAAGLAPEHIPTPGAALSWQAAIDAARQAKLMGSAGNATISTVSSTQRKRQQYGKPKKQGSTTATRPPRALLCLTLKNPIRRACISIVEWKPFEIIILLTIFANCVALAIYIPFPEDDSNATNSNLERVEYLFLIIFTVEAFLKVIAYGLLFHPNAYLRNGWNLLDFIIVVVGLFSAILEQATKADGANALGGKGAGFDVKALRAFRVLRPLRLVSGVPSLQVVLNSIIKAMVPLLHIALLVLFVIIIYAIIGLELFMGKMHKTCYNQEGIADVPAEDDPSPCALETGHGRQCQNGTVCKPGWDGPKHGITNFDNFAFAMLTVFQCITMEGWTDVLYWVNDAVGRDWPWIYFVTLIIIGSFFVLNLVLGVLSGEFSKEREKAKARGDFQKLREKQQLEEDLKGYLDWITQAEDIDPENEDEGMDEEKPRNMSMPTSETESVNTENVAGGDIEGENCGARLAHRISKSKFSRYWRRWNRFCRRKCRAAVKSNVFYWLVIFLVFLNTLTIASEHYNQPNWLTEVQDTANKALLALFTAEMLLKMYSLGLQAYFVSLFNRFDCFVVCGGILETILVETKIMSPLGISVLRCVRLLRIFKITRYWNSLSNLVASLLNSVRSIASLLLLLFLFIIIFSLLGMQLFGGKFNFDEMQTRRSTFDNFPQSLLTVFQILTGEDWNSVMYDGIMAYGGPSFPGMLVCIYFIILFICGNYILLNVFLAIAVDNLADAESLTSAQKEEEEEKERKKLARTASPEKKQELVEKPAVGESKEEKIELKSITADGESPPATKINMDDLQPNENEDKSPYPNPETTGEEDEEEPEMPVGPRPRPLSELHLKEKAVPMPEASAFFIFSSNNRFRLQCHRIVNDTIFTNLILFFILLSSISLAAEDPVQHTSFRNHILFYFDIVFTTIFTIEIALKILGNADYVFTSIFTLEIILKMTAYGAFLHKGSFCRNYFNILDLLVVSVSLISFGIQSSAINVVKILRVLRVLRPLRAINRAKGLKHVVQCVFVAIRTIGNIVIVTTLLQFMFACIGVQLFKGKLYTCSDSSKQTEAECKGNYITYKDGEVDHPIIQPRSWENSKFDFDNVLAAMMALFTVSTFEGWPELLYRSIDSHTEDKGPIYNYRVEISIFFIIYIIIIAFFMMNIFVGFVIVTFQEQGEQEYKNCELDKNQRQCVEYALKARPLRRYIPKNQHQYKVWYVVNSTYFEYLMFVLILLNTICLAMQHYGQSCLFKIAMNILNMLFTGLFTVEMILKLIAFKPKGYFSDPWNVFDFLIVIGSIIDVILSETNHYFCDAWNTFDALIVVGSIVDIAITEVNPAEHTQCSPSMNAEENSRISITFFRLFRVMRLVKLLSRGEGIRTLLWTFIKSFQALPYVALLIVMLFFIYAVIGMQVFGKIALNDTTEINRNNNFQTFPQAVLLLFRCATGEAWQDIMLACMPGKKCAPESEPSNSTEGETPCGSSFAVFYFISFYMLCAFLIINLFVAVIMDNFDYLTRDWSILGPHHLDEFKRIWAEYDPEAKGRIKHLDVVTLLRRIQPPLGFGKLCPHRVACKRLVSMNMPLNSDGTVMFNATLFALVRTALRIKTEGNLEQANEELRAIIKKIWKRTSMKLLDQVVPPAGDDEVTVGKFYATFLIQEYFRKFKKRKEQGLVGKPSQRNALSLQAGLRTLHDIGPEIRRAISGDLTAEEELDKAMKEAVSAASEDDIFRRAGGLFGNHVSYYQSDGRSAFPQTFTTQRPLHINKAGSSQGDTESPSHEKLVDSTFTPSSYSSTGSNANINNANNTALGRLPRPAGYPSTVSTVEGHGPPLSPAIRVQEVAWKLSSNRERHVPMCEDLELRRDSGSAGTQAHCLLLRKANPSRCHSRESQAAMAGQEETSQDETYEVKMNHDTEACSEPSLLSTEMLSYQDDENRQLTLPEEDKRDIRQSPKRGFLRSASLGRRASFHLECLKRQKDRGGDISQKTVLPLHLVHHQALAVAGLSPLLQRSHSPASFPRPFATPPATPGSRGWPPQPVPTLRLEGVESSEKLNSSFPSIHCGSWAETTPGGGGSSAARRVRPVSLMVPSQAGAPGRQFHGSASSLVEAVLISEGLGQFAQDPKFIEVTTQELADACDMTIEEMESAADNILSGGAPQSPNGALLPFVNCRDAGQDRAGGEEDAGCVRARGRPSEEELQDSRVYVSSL
CAv1.2, sequence (P54289 25-1103 partner): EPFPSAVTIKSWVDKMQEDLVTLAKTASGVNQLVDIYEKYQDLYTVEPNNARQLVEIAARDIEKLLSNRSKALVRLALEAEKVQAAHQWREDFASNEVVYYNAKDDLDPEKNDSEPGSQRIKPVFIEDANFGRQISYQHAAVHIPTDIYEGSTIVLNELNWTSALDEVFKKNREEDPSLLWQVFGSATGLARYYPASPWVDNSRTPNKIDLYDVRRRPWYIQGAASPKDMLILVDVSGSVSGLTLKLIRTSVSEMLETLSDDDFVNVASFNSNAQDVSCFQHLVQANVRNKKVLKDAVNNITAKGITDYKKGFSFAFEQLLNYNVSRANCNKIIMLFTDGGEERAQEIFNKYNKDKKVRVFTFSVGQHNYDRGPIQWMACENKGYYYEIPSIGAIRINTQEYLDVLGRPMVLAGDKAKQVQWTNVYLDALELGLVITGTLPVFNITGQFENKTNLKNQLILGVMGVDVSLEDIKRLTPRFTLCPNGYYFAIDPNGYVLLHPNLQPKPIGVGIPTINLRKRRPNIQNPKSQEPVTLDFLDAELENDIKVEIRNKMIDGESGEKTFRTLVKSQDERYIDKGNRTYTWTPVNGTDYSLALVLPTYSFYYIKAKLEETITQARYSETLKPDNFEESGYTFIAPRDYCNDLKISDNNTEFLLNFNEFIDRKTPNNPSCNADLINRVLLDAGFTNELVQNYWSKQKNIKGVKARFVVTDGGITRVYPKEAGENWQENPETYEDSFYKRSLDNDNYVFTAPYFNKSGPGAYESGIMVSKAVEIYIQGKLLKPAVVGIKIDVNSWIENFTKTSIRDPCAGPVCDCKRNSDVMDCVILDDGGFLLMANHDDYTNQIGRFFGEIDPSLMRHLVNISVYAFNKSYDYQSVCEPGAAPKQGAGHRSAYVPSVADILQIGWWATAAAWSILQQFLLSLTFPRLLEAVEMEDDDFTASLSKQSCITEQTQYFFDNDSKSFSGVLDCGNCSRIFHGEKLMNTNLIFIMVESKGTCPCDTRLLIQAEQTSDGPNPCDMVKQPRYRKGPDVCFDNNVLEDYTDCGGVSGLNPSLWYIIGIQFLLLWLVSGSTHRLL
CAv1.2, sequence (Q08289 whole entry partner): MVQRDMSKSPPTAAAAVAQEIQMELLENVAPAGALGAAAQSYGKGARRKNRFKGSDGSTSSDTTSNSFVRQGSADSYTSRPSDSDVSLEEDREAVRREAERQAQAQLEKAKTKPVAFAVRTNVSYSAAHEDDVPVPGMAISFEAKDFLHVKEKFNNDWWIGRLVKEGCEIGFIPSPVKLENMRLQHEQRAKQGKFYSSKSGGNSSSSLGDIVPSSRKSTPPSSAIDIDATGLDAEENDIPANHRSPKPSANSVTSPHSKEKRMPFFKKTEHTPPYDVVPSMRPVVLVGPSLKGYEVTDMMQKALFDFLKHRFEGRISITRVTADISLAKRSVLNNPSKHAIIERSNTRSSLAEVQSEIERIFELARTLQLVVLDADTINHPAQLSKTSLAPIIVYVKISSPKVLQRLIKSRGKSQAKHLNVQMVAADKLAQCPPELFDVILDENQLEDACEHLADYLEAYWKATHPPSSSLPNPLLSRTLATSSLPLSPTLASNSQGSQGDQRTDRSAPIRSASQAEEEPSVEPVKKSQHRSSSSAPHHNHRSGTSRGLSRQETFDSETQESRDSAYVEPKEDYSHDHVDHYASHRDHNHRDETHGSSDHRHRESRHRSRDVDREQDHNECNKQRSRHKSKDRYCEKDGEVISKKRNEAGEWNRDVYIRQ

SMILES	IC50 [1, 5]	IC50 [1, 6]	CAv1.2 IC50 Ratio closed/inact. [1]	IC50 [2, 7]	IC50 [2, 8]	CAv3.2 IC50 Ratio closed/inact. [2]	IC50 [3]	IC50 [4, 9]	IC50 [4, 10]	CAv2.2 IC50 Ratio closed/inact. [4]
CC(C)([C@H]1C[C@H](NS(=O)(=O)c2ccc(Cl)c(F)c2)C1)S(=O)(=O)c1cc(F)cc(C(F)(F)F)c1 [Compound 607]	7.78 µM	2.99 µM	2.6	≥ 10 µM	3.73 µM	2.7	5.43 µM	2.97 µM	1.15 µM	2.6
CC(C)([C@H]1C[C@@H](NC(=O)c2ccc(C(F)(F)F)nc2)C1)S(=O)(=O)c1cccc(C(F)(F)F)c1 [Compound 576]	≥ 10 µM	9.62 µM	1	≥ 10 µM	9.9 µM	1	≥ 10 µM	8.56 µM	0.44 µM	19.5
CC(C)S(=O)(=O)c1cc(C(F)(F)F)cnc1C(=O)NCC1CC(C(C)(C)S(=O)(=O)c2cccc(C(F)(F)F)c2)C1 (stereo not shown) [Compound 613]	8 µM	5.92 µM	1.4	9.16 µM	5.45 µM	1.7	≥ 10 µM	6.51 µM	0.35 µM	18.6
CC(C)([C@H]1C[C@@H](NC(=O)c2cc(C(F)(F)F)n[nH]2)C1)S(=O)(=O)c1cc(F)cc(C(F)(F)F)c1 [Compound 587]	≥ 10 µM	4.85 µM	2.1	6.56 µM	3.6 µM	1.8	≥ 10 µM	5.55 µM	0.72 µM	7.7
CC(C)([C@H]1C[C@@H](NC(=O)c2ccc(Cl)c(F)c2)C1)S(=O)(=O)c1cccc(OC(F)(F)F)c1 [Compound 640]	4.9 µM	1.43 µM	3.4	0.7 µM	0.92 µM	0.8	1.26 µM	2.49 µM	0.4 µM	6.2
CC(C)(C[C@H]1C[C@@H](NC(=O)c2ccc(Cl)cc2S(C)(=O)=O)C1)S(=O)(=O)c1cccc(C(F)(F)F)c1 [Compound 731]	≥ 10 µM	≥ 10 µM		6.36 µM	6.67 µM	1	≥ 10 µM	5.38 µM	0.23 µM	23.4
CC(C)([C@H]1C[C@@H](CNC(=O)c2ccc(F)c(Cl)c2)C1)S(=O)(=O)c1cccc(C(F)(F)F)c1 [Compound 685]	4.71 µM	1.01 µM	4.7	0.44 µM			0.38 µM	1.87 µM	0.18 µM	10.4
O=C(NC[C@H]1C[C@H](S(=O)(=O)c2cc(F)cc(C(F)(F)F)c2)C1)c1ccnc(C(F)(F)F)n1 [Compound 710]	≥ 10 µM	≥ 10 µM		≥ 10 µM	10 µM	1	≥ 10 µM	5.01 µM	1.49 µM	3.4
CC(C)S(=O)(=O)c1cc(C(F)(F)F)cnc1C(=O)N[C@H]1C[C@H](C(C)(C)S(=O)(=O)c2cc(F)cc(C(F)(F)F)c2)C1 [Compound 593]	≥ 10 µM	7.86 µM	1.3	≥ 10 µM	10.4 µM	1	≥ 10 µM	10 µM	0.16 µM	62.5
O=C(NC[C@H]1C[C@H](S(=O)(=O)c2cc(F)cc(C(F)(F)F)c2)C1)c1cnc(C(F)(F)F)nc1 [Compound 705]	≥ 10 µM	≥ 10 µM		≥ 10 µM	10 µM	1	≥ 10 µM	10 µM	2.47 µM	4
CC(C)(C1CC(CNC(=O)c2ccnc(C(F)(F)F)c2)C1)S(=O)(=O)c1cccc(C(F)(F)F)c1 (stereo not shown) [Compound 620]	9.99 µM	0.67 µM	14.9	5.52 µM	1.39 µM	4	8.71 µM	2.87 µM	0.39 µM	7.4
O=C(NC[C@H]1C[C@H](S(=O)(=O)c2cccc(OC(F)(F)F)c2)C1)c1ccc(OCC(F)(F)F)nc1 [Compound 698]	5.6 µM	2.48 µM	2.3	3.02 µM		1.1	3.02 µM	2.7 µM		5.7
CC(C)([C@H]1C[C@@H](NC(=O)c2ccnc(C(F)(F)F)n2)C1)S(=O)(=O)c1cccc(OC(F)(F)F)c1 [Compound 642]	≥ 10 µM	8.43 µM	1.2	9.61 µM	2.81 µM	3.4	4.07 µM	3.09 µM	0.63 µM	4.9
Cn1nc(C(F)(F)F)cc1C(=O)N[C@H]1C[C@@H](CC(C)(C)S(=O)(=O)c2cccc(C(F)(F)F)c2)C1 [Compound 738]	5.36 µM	2.34 µM	2.3	2.25 µM	0.52 µM	4.3	5.75 µM	1.27 µM	0.12 µM	10.6
CC(C)([C@H]1C[C@H](NS(=O)(=O)c2ccc(C(F)(F)F)cc2)C1)S(=O)(=O)c1cccc(C(F)(F)F)c1 [Compound 663]	≥ 10 µM	2.98 µM	3.4	2.94 µM	1.53 µM	1.9	2.01 µM	9.19 µM	0.87 µM	10.6
CC(C)(C1CC(CNC(=O)c2ccc(C(F)(F)F)cc2S(C)(=O)=O)C1)S(=O)(=O)c1cccc(C(F)(F)F)c1 (stereo not shown) [Compound 612]	≥ 10 µM	4.17 µM	2.4	9.28 µM	3.95 µM	2.3	≥ 10 µM	8.54 µM	0.54 µM	15.8
CC(C)([C@H]1C[C@@H](NC(=O)c2ccc(F)c(Cl)c2)C1)S(=O)(=O)c1cc(F)cc(C(F)(F)F)c1 [Compound 590]	5.33 µM	1.7 µM	3.1	4.3 µM	1.37 µM	3.1	6.85 µM	2.83 µM	0.34 µM	8.3
